Assay results as given in patent publication US12617779B2, “Self degradation-type CDK9 inhibitor prodrug and liposome encapsulating same” (Sumitomo Pharma Co., Ltd., priority 2021, dated 2026).

Columns and labels:
[1] = Evaluation of conversion rate to active form in buffer solution (Experimental Example 1); format: physicochemical; settings: for Conversion to Alvocidib at pH 7.4: pH 7.4, 37° C., up to 3 hours
In short: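 25 umol/L cpd, 37° C; 50 mM citrate pH 5.0/5.5, 50 mM phosphate pH 6.0/6.5/7.0/7.4. HPLC at 0–3 h: residual rate and Alvocidib production rate.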

[2] = Evaluation of conversion rate to active form in BALB/c mouse plasma (Experimental Example 3); format: in vitro ADME; settings: BALB/c, mouse, 0.2 μmol/L
In short: (§1)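 LC-MS/MS (positive ESI) followed the parent and released Alvocidib during 37° C incubation of 0.2 μmol/L compound in human or BALB/c mouse plasma, sampled at 0/30/60 or 0/60/120 min. Remaining parent is expressed versus the 0-min peak; conversion versus a 0.2 μmol/L Alvocidib standard.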

[3] = Evaluation of conversion rate to active form in human plasma (Experimental Example 3); format: in vitro ADME; settings: human, 0.2 μmol/L
In short: as §1

SMILES: CC(C)[C@H](N)C(=O)O[C@@H]1CN(C)CC[C@@H]1c1c(O)cc(O)c2c(=O)cc(-c3ccccc3Cl)oc12 [Comparative Example 10, reference compound]
- Production rate of Alvocidib ([1]; pH5.0, 0 hr): 2.0%
- Residual rate ([1]; pH5.0, 0 hr): 93.4%
- Production rate of Alvocidib ([1]; pH5.0, 0.5 hr): 2.3%
- Residual rate ([1]; pH5.0, 0.5 hr): 93.2%
- Production rate of Alvocidib ([1]; pH5.0, 1 hr): 2.7%
- Residual rate ([1]; pH5.0, 1 hr): 92.7%
- Production rate of Alvocidib ([1]; pH5.0, 2 hr): 3.7%
- Residual rate ([1]; pH5.0, 2 hr): 91.4%
- Production rate of Alvocidib ([1]; pH5.0, 3 hr): 4.2%
- Residual rate ([1]; pH5.0, 3 hr): 91.2%
- Production rate of Alvocidib ([1]; pH5.5, 0 hr): 2.0%
- Residual rate ([1]; pH5.5, 0 hr): 93.2%
- Production rate of Alvocidib ([1]; pH5.5, 0.5 hr): 2.7%
- Residual rate ([1]; pH5.5, 0.5 hr): 92.7%
- Production rate of Alvocidib ([1]; pH5.5, 1 hr): 3.7%
- Residual rate ([1]; pH5.5, 1 hr): 91.7%
- Production rate of Alvocidib ([1]; pH5.5, 2 hr): 5.5%
- Residual rate ([1]; pH5.5, 2 hr): 89.9%
- Production rate of Alvocidib ([1]; pH5.5, 3 hr): 6.8%
- Residual rate ([1]; pH5.5, 3 hr): 88.7%
- Production rate of Alvocidib ([1]; pH6.0, 0 hr): 2.1%
- Residual rate ([1]; pH6.0, 0 hr): 93.1%
- Production rate of Alvocidib ([1]; pH6.0, 0.5 hr): 4.4%
- Residual rate ([1]; pH6.0, 0.5 hr): 90.7%
- Production rate of Alvocidib ([1]; pH6.0, 1 hr): 7.2%
- Residual rate ([1]; pH6.0, 1 hr): 88.6%
- Production rate of Alvocidib ([1]; pH6.0, 2 hr): 12.8%
- Residual rate ([1]; pH6.0, 2 hr): 83.1%
- Production rate of Alvocidib ([1]; pH6.0, 3 hr): 16.3%
- Residual rate ([1]; pH6.0, 3 hr): 79.7%
- Production rate of Alvocidib ([1]; pH6.5, 0 hr): 2.3%
- Residual rate ([1]; pH6.5, 0 hr): 93.2%
- Production rate of Alvocidib ([1]; pH6.5, 0.5 hr): 5.1%
- Residual rate ([1]; pH6.5, 0.5 hr): 90.9%
- Production rate of Alvocidib ([1]; pH6.5, 1 hr): 8.8%
- Residual rate ([1]; pH6.5, 1 hr): 87.4%
- Production rate of Alvocidib ([1]; pH6.5, 2 hr): 15.6%
- Residual rate ([1]; pH6.5, 2 hr): 81.1%
- Production rate of Alvocidib ([1]; pH6.5, 3 hr): 20.2%
- Residual rate ([1]; pH6.5, 3 hr): 76.6%
- Production rate of Alvocidib ([1]; pH7.0, 0 hr): 2.1%
- Residual rate ([1]; pH7.0, 0 hr): 93.2%
- Production rate of Alvocidib ([1]; pH7.0, 0.5 hr): 5.2%
- Residual rate ([1]; pH7.0, 0.5 hr): 92.3%
- Production rate of Alvocidib ([1]; pH7.0, 1 hr): 8.5%
- Residual rate ([1]; pH7.0, 1 hr): 88.2%
- Production rate of Alvocidib ([1]; pH7.0, 2 hr): 15.5%
- Residual rate ([1]; pH7.0, 2 hr): 81.5%
- Production rate of Alvocidib ([1]; pH7.0, 3 hr): 19.5%
- Residual rate ([1]; pH7.0, 3 hr): 75.7%
- Production rate of Alvocidib ([1]; pH7.4, 0 hr): 2.1%
- Residual rate ([1]; pH7.4, 0 hr): 93.2%
- Conversion to Alvocidib at pH 7.4 [1]: slowly converted to Alvocidib
- Production rate of Alvocidib ([1]; pH7.4, 0.5 hr): 4.6%
- Residual rate ([1]; pH7.4, 0.5 hr): 92.2%
- Production rate of Alvocidib ([1]; pH7.4, 1 hr): 7.5%
- Residual rate ([1]; pH7.4, 1 hr): 89.3%
- Production rate of Alvocidib ([1]; pH7.4, 2 hr): 13.3%
- Residual rate ([1]; pH7.4, 2 hr): 82.9%
- Production rate of Alvocidib ([1]; pH7.4, 3 hr): 17.1%
- Residual rate ([1]; pH7.4, 3 hr): 78.4%
- Production rate (%) of Alvocidib ([2]; 0 min): 1%
- Residual rate (%) of test compound ([2]; 0 min): 100%
- Production rate (%) of Alvocidib ([2]; 60 min): 5%
- Residual rate (%) of test compound ([2]; 60 min): 84%
- Production rate (%) of Alvocidib ([2]; 120 min): 6%
- Residual rate (%) of test compound ([2]; 120 min): 89%
- Production rate (%) of Alvocidib ([3]; 0 min): 0%
- Residual rate (%) of test compound ([3]; 0 min): 100%
- Production rate (%) of Alvocidib ([3]; 60 min): 2%
- Residual rate (%) of test compound ([3]; 60 min): 104%
- Production rate (%) of Alvocidib ([3]; 120 min): 3%
- Residual rate (%) of test compound ([3]; 120 min): 105%

SMILES: CN1CC[C@H](c2c(O)cc(O)c3c(=O)cc(-c4ccccc4Cl)oc23)[C@H](OC(=O)c2ccccc2F)C1 [Comparative Example 12]
- Production rate of Alvocidib ([1]; pH7.4, 0 hr): 1.4%
- Residual rate ([1]; pH7.4, 0 hr): 98.0%
- Conversion to Alvocidib at pH 7.4 [1]: slowly converted to Alvocidib
- Production rate of Alvocidib ([1]; pH7.4, 0.5 hr): 1.5%
- Residual rate ([1]; pH7.4, 0.5 hr): 97.5%
- Production rate of Alvocidib ([1]; pH7.4, 1 hr): 1.6%
- Residual rate ([1]; pH7.4, 1 hr): 97.6%
- Production rate of Alvocidib ([1]; pH7.4, 2 hr): 1.8%
- Residual rate ([1]; pH7.4, 2 hr): 97.6%
- Production rate (%) of Alvocidib ([2]; 0 min): 2%
- Residual rate (%) of test compound ([2]; 0 min): 100%
- Production rate (%) of Alvocidib ([2]; 60 min): 19%
- Residual rate (%) of test compound ([2]; 60 min): 85%
- Production rate (%) of Alvocidib ([2]; 120 min): 27%
- Residual rate (%) of test compound ([2]; 120 min): 76%
- Production rate (%) of Alvocidib ([3]; 0 min): 0%
- Residual rate (%) of test compound ([3]; 0 min): 100%
- Production rate (%) of Alvocidib ([3]; 60 min): 23%
- Residual rate (%) of test compound ([3]; 60 min): 74%
- Production rate (%) of Alvocidib ([3]; 120 min): 32%
- Residual rate (%) of test compound ([3]; 120 min): 58%
